PubChem BioAssay AID2060895 (Molecular Pharmacology Branch, DTP, NCI, 2025)
Blank lines part the entries; values can stand above or below the molecule they belong to.

System: PDC 899932-113-R3-J6 complex spheroid viability
Test: Anticancer human tumor 899932-113-R3-J6-PDC patient-derived melanoma cell line growth inhibition [RAS]
Settings: for IC50: curve of first compound; for viability, T/C: stronger effect = lower value
In short: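 Agents were tested in combination matrices in half-log decrements from a top concentration at or near clinical Cmax (10 microM if undetermined). Targets were multi-cell spheroids of tumour lines plus HUVEC and MSC stromal cells.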

[1] = second compound 0.000949 µM, first compound 0.0316 µM
[2] = second compound 0.000949 µM, first compound 0.1 µM
[3] = second compound 0.000949 µM, first compound 0.316 µM
[4] = second compound 0.000949 µM, first compound 1 µM
[5] = second compound 0.000949 µM, first compound 3.16 µM
[6] = second compound 0.000949 µM, first compound 10 µM
[7] = second compound 0.003 µM, first compound 0.0316 µM
[8] = second compound 0.003 µM, first compound 0.1 µM
[9] = second compound 0.003 µM, first compound 0.316 µM
[10] = second compound 0.003 µM, first compound 1 µM
[11] = second compound 0.003 µM, first compound 3.16 µM
[12] = second compound 0.003 µM, first compound 10 µM
[13] = second compound 0.00949 µM, first compound 0.0316 µM
[14] = second compound 0.00949 µM, first compound 0.1 µM
[15] = second compound 0.00949 µM, first compound 0.316 µM
[16] = second compound 0.00949 µM, first compound 1 µM
[17] = second compound 0.00949 µM, first compound 3.16 µM
[18] = second compound 0.00949 µM, first compound 10 µM
[19] = second compound 0.03 µM, first compound 0.0316 µM
[20] = second compound 0.03 µM, first compound 0.1 µM
[21] = second compound 0.03 µM, first compound 0.316 µM
[22] = second compound 0.03 µM, first compound 1 µM
[23] = second compound 0.03 µM, first compound 3.16 µM
[24] = second compound 0.03 µM, first compound 10 µM
[25] = second compound 0.0949 µM, first compound 0.0316 µM
[26] = second compound 0.0949 µM, first compound 0.1 µM
[27] = second compound 0.0949 µM, first compound 0.316 µM
[28] = second compound 0.0949 µM, first compound 1 µM
[29] = second compound 0.0949 µM, first compound 3.16 µM
[30] = second compound 0.0949 µM, first compound 10 µM
[31] = second compound 0.3 µM, first compound 0.0316 µM
[32] = second compound 0.3 µM, first compound 0.1 µM
[33] = second compound 0.3 µM, first compound 0.316 µM
[34] = second compound 0.3 µM, first compound 1 µM
[35] = second compound 0.3 µM, first compound 3.16 µM
[36] = second compound 0.3 µM, first compound 10 µM
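Wherever viability, T/C is given: spheroids exposed to agents for seven days before readout; 100% = DMSO vehicle control wells.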

- IC50 (second compound 0.000949 µM): 1460 nM
- IC50 (second compound 0.003 µM): 1580 nM
- IC50 (second compound 0.00949 µM): 1500 nM
- IC50 (second compound 0.03 µM): 1490 nM
- IC50 (second compound 0.0949 µM): 1310 nM
- IC50 (second compound 0.3 µM): 1220 nM
SMILES: CCC(CC)c1cc(NC2CCC(N)C2)n2nccc2n1 (stereo not drawn) + CCn1c(-c2cccnc2C(C)OC)c2c3cc(ccc31)N1CCOC(CC(NC(=O)C(C(C)C)N(C)C(=O)C3(F)CCN(C(=O)C#CC(C)(C)N(C)C)CC3)C(=O)N3CCCC(N3)C(=O)OCC(C)(C)C2)C1
- viability, T/C [1]: 104%
- viability, T/C [2]: 86.7%
- viability, T/C [3]: 94.8%
- viability, T/C [4]: 73.8%
- viability, T/C [5]: 1.84%
- viability, T/C [6]: 0.94%
- viability, T/C [7]: 95.8%
- viability, T/C [8]: 85.5%
- viability, T/C [9]: 90.9%
- viability, T/C [10]: 81.7%
- viability, T/C [11]: 1.51%
- viability, T/C [12]: 1.01%
- viability, T/C [13]: 94.7%
- viability, T/C [14]: 82.3%
- viability, T/C [15]: 87.1%
- viability, T/C [16]: 76.7%
- viability, T/C [17]: 1.18%
- viability, T/C [18]: 0.88%
- viability, T/C [19]: 86.7%
- viability, T/C [20]: 77.1%
- viability, T/C [21]: 85.3%
- viability, T/C [22]: 75.9%
- viability, T/C [23]: 1.56%
- viability, T/C [24]: 0.52%
- viability, T/C [25]: 80.2%
- viability, T/C [26]: 83.4%
- viability, T/C [27]: 87.5%
- viability, T/C [28]: 64.8%
- viability, T/C [29]: 1.71%
- viability, T/C [30]: 0.88%
- viability, T/C [31]: 79.8%
- viability, T/C [32]: 73.5%
- viability, T/C [33]: 77.9%
- viability, T/C [34]: 60%
- viability, T/C [35]: 1.44%
- viability, T/C [36]: 0.36%

- IC50 (second compound 0.0316 µM): > 10000 nM
- IC50 (second compound 0.1 µM): > 10000 nM
- IC50 (second compound 0.316 µM): > 10000 nM
- IC50 (second compound 1 µM): > 10000 nM
- IC50 (second compound 3.16 µM): > 10000 nM
- IC50 (second compound 10 µM): > 10000 nM
SMILES: NC1c2ccccc2OC12CCN(c1cnc3c(N4CCCc5ncccc54)n[nH]c3n1)CC2 (stereo not drawn) + C#Cc1c(F)ccc2cc(O)cc(-c3ncc4c(N5CC6CCC(C5)N6)nc(OCC56CCCN5CC(F)C6)nc4c3F)c12
- viability, T/C (second compound 0.0316 µM, first compound 0.0316 µM): 108%
- viability, T/C (second compound 0.0316 µM, first compound 0.1 µM): 103%
- viability, T/C (second compound 0.0316 µM, first compound 0.316 µM): 117%
- viability, T/C (second compound 0.0316 µM, first compound 1 µM): 121%
- viability, T/C (second compound 0.0316 µM, first compound 3.16 µM): 104%
- viability, T/C (second compound 0.0316 µM, first compound 10 µM): 98.8%
- viability, T/C (second compound 0.1 µM, first compound 0.0316 µM): 111%
- viability, T/C (second compound 0.1 µM, first compound 0.1 µM): 115%
- viability, T/C (second compound 0.1 µM, first compound 0.316 µM): 114%
- viability, T/C (second compound 0.1 µM, first compound 1 µM): 114%
- viability, T/C (second compound 0.1 µM, first compound 3.16 µM): 117%
- viability, T/C (second compound 0.1 µM, first compound 10 µM): 96.4%
- viability, T/C (second compound 0.316 µM, first compound 0.0316 µM): 108%
- viability, T/C (second compound 0.316 µM, first compound 0.1 µM): 120%
- viability, T/C (second compound 0.316 µM, first compound 0.316 µM): 105%
- viability, T/C (second compound 0.316 µM, first compound 1 µM): 116%
- viability, T/C (second compound 0.316 µM, first compound 3.16 µM): 110%
- viability, T/C (second compound 0.316 µM, first compound 10 µM): 96.6%
- viability, T/C (second compound 1 µM, first compound 0.0316 µM): 106%
- viability, T/C (second compound 1 µM, first compound 0.1 µM): 104%
- viability, T/C (second compound 1 µM, first compound 0.316 µM): 124%
- viability, T/C (second compound 1 µM, first compound 1 µM): 112%
- viability, T/C (second compound 1 µM, first compound 3.16 µM): 105%
- viability, T/C (second compound 1 µM, first compound 10 µM): 111%
- viability, T/C (second compound 3.16 µM, first compound 0.0316 µM): 134%
- viability, T/C (second compound 3.16 µM, first compound 0.1 µM): 112%
- viability, T/C (second compound 3.16 µM, first compound 0.316 µM): 135%
- viability, T/C (second compound 3.16 µM, first compound 1 µM): 133%
- viability, T/C (second compound 3.16 µM, first compound 3.16 µM): 120%
- viability, T/C (second compound 3.16 µM, first compound 10 µM): 107%
- viability, T/C (second compound 10 µM, first compound 0.0316 µM): 123%
- viability, T/C (second compound 10 µM, first compound 0.1 µM): 126%
- viability, T/C (second compound 10 µM, first compound 0.316 µM): 120%
- viability, T/C (second compound 10 µM, first compound 1 µM): 117%
- viability, T/C (second compound 10 µM, first compound 3.16 µM): 112%
- viability, T/C (second compound 10 µM, first compound 10 µM): 86.5%

- IC50 (second compound 0.000949 µM): 5630 nM
- IC50 (second compound 0.003 µM): 2600 nM
- IC50 (second compound 0.00949 µM): < 31.6 nM
- IC50 (second compound 0.03 µM): < 31.6 nM
- IC50 (second compound 0.0949 µM): < 31.6 nM
- IC50 (second compound 0.3 µM): < 31.6 nM
SMILES: C[C@@H](NC(=O)c1ncnc(N)c1Cl)c1ncc(C(=O)Nc2cc(C(F)(F)F)c(Cl)cn2)s1 + CCn1c(-c2cc(N3CCN(C)CC3)cnc2C(C)OC)c2c3cc(ccc31)-c1csc(n1)CC(NC(=O)C1CC1C)C(=O)N1CCCC(N1)C(=O)OCC(C)(C)C2
- viability, T/C [1]: 104%
- viability, T/C [2]: 113%
- viability, T/C [3]: 124%
- viability, T/C [4]: 127%
- viability, T/C [5]: 82%
- viability, T/C [6]: 18.2%
- viability, T/C [7]: 66.6%
- viability, T/C [8]: 76.1%
- viability, T/C [9]: 83.8%
- viability, T/C [10]: 82.1%
- viability, T/C [11]: 44.4%
- viability, T/C [12]: 12%
- viability, T/C [13]: 8.34%
- viability, T/C [14]: 12.9%
- viability, T/C [15]: 15.3%
- viability, T/C [16]: 13.6%
- viability, T/C [17]: 9.29%
- viability, T/C [18]: 4.48%
- viability, T/C [19]: 3.38%
- viability, T/C [20]: 2.96%
- viability, T/C [21]: 2.78%
- viability, T/C [22]: 2.66%
- viability, T/C [23]: 2.41%
- viability, T/C [24]: 2.96%
- viability, T/C [25]: 2.75%
- viability, T/C [26]: 2.95%
- viability, T/C [27]: 2.73%
- viability, T/C [28]: 2.82%
- viability, T/C [29]: 2.56%
- viability, T/C [30]: 2.32%
- viability, T/C [31]: 2.53%
- viability, T/C [32]: 2.03%
- viability, T/C [33]: 2.73%
- viability, T/C [34]: 2.35%
- viability, T/C [35]: 3.08%
- viability, T/C [36]: 2.77%

- IC50 (second compound 0.000949 µM): > 1000 nM
- IC50 (second compound 0.003 µM): < 3.16 nM
- IC50 (second compound 0.00949 µM): < 3.16 nM
- IC50 (second compound 0.03 µM): < 3.16 nM
- IC50 (second compound 0.0949 µM): < 3.16 nM
- IC50 (second compound 0.3 µM): < 3.16 nM
SMILES: C=CC(=O)N1CCN(c2nc(OCC3CCCN3C)nc3c(F)c(-c4nc(N)cc(C)c4C(F)(F)F)c(Cl)cc23)C(C)C1 (stereo not drawn) + CCn1c(-c2cc(N3CCN(C)CC3)cnc2C(C)OC)c2c3cc(ccc31)-c1csc(n1)CC(NC(=O)C1CC1C)C(=O)N1CCCC(N1)C(=O)OCC(C)(C)C2
- viability, T/C (second compound 0.000949 µM, first compound 0.00316 µM): 73.2%
- viability, T/C (second compound 0.000949 µM, first compound 0.01 µM): 71.3%
- viability, T/C [1]: 75.9%
- viability, T/C [2]: 76.8%
- viability, T/C [3]: 74%
- viability, T/C [4]: 78.2%
- viability, T/C (second compound 0.003 µM, first compound 0.00316 µM): 39.8%
- viability, T/C (second compound 0.003 µM, first compound 0.01 µM): 35.6%
- viability, T/C [7]: 36.5%
- viability, T/C [8]: 37.7%
- viability, T/C [9]: 42.3%
- viability, T/C [10]: 34.5%
- viability, T/C (second compound 0.00949 µM, first compound 0.00316 µM): 3.88%
- viability, T/C (second compound 0.00949 µM, first compound 0.01 µM): 4.28%
- viability, T/C [13]: 6.59%
- viability, T/C [14]: 5.83%
- viability, T/C [15]: 4.76%
- viability, T/C [16]: 5.5%
- viability, T/C (second compound 0.03 µM, first compound 0.00316 µM): 2.75%
- viability, T/C (second compound 0.03 µM, first compound 0.01 µM): 2.91%
- viability, T/C [19]: 4.47%
- viability, T/C [20]: 2.82%
- viability, T/C [21]: 2.96%
- viability, T/C [22]: 2.4%
- viability, T/C (second compound 0.0949 µM, first compound 0.00316 µM): 2.13%
- viability, T/C (second compound 0.0949 µM, first compound 0.01 µM): 2.76%
- viability, T/C [25]: 2.86%
- viability, T/C [26]: 1.94%
- viability, T/C [27]: 2.58%
- viability, T/C [28]: 2.69%
- viability, T/C (second compound 0.3 µM, first compound 0.00316 µM): 2.09%
- viability, T/C (second compound 0.3 µM, first compound 0.01 µM): 2.1%
- viability, T/C [31]: 3.32%
- viability, T/C [32]: 3.11%
- viability, T/C [33]: 2.88%
- viability, T/C [34]: 2.36%
